Assay results published in ChEMBL document CHEMBL4270647, “Recent advances of RAF (rapidly accelerated fibrosarcoma) inhibitors as anti-cancer agents” (Eur J Med Chem, 2018).
One block for each compound: values may come before it.

What was measured:
NCI-H460 = test: Antiproliferative activity against human NCI-H460 cells; format: functional, cell-based
MKN-45 = test: Antiproliferative activity against human MKN45 cells; format: functional, cell-based
UO-31 = test: Antiproliferative activity against human UO31 cells; format: functional, cell-based
MCF7 = test: Antiproliferative activity against human MCF7 cells; format: functional, cell-based
MX1 = test: Antiproliferative activity against human MX1 cells; format: functional, cell-based
[1] = target: T1, Serine/threonine-protein kinase B-raf (Homo sapiens, UniProt P15056); test: Inhibition of BRAF (unknown origin)
A-375 [2] = test: Antiproliferative activity against human A375 cells; format: functional, cell-based
[3] = target: T2, Serine/threonine-protein kinase B-raf (Homo sapiens, UniProt P15056, V600E); test: Inhibition of BRAF V600E mutant (unknown origin)
HCT-116 = test: Antiproliferative activity against human HCT116 cells; format: functional, cell-based
[4] = target: T3, RAF proto-oncogene serine/threonine-protein kinase (Homo sapiens, UniProt P04049); test: Inhibition of CRAF (unknown origin)
[5] = target: T4, Serine/threonine-protein kinase A-Raf (Homo sapiens, UniProt P10398); test: Inhibition of ARAF (unknown origin)
T4 sequence (P10398 whole entry): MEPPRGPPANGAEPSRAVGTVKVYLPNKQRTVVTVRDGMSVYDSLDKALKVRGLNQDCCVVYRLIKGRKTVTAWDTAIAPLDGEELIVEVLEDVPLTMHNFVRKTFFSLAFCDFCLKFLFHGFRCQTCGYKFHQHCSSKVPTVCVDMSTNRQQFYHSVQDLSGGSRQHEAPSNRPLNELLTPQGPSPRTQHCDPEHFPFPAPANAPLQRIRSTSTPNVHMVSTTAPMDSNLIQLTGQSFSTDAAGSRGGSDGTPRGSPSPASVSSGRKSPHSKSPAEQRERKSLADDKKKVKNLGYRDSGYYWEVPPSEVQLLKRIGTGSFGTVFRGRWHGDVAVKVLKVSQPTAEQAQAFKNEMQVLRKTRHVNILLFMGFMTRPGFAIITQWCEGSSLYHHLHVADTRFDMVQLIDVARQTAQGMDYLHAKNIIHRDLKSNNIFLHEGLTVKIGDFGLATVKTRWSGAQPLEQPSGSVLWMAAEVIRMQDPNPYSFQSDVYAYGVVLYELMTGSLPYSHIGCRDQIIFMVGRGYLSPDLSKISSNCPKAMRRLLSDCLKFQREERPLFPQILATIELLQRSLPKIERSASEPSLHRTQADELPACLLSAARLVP

[6] = target: T2, Serine/threonine-protein kinase B-raf; test: Inhibition of […] BRAF V600E mutant (AA416 to 766 residues (unknown origin) using full length His6-tagged MEK1 as substrate after 20 mins in presence of 33P-gamma-ATP by hotspot kinase assay
[7] = target: T4, Serine/threonine-protein kinase A-Raf; test: Inhibition of ARAF (unknown origin) after 20 mins in presence of 33P-gamma-ATP by hotspot kinase
[8] = target: T1, Serine/threonine-protein kinase B-raf; test: Inhibition of BRAF (unknown origin) using full length His6-tagged MEK1 as substrate after 20 mins in presence of 33P-gamma-ATP by hotspot kinase assay
[9] = target: T3, RAF proto-oncogene serine/threonine-protein kinase; test: Inhibition of CRAF (unknown origin) after 20 mins in presence of 33P-gamma-ATP by hotspot kinase assay
A-375 [10] = test: Antiproliferative activity against human A375 cells after 72 hrs by CTG solution based luminescence assay; format: functional, cell-based; settings: A-375, 72 h
COLO 205 = test: Antiproliferative activity against human COLO205 cells after 72 hrs by CTG solution based luminescence assay; format: functional, cell-based; settings: COLO 205, 72 h
SK-MEL-2 = test: Antiproliferative activity against human SK-MEL-2 cells after 72 hrs by CTG solution based luminescence assay; format: functional, cell-based; settings: SK-MEL-2, 72 h
HepG2 = test: Antiproliferative activity against human HepG2 cells; format: functional, cell-based
KETR3 = test: Antiproliferative activity against human Ketr3 cells; format: functional, cell-based
HT-29 = test: Antiproliferative activity against human HT-29 cells; format: functional, cell-based

T1 sequence (P15056 whole entry): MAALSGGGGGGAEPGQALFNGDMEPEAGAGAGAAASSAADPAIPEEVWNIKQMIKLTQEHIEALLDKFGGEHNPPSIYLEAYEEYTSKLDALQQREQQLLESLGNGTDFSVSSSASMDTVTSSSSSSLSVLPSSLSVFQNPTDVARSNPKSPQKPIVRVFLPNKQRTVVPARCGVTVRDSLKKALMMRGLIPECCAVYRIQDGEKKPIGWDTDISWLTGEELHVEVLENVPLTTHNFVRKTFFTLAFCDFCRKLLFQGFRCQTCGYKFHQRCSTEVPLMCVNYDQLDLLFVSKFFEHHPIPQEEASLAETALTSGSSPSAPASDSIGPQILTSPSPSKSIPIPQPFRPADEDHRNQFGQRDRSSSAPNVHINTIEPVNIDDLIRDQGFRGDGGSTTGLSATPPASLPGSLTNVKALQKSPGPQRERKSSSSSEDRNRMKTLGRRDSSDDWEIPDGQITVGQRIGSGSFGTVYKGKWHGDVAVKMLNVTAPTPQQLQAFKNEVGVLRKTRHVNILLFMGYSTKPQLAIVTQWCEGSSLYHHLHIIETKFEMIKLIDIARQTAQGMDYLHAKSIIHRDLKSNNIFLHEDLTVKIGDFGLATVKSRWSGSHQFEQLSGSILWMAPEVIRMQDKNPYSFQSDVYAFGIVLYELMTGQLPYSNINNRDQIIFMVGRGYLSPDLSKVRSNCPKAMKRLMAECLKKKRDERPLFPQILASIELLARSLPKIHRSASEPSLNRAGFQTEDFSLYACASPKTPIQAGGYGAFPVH
T2 sequence (P15056 2-766 V600E limits assumed): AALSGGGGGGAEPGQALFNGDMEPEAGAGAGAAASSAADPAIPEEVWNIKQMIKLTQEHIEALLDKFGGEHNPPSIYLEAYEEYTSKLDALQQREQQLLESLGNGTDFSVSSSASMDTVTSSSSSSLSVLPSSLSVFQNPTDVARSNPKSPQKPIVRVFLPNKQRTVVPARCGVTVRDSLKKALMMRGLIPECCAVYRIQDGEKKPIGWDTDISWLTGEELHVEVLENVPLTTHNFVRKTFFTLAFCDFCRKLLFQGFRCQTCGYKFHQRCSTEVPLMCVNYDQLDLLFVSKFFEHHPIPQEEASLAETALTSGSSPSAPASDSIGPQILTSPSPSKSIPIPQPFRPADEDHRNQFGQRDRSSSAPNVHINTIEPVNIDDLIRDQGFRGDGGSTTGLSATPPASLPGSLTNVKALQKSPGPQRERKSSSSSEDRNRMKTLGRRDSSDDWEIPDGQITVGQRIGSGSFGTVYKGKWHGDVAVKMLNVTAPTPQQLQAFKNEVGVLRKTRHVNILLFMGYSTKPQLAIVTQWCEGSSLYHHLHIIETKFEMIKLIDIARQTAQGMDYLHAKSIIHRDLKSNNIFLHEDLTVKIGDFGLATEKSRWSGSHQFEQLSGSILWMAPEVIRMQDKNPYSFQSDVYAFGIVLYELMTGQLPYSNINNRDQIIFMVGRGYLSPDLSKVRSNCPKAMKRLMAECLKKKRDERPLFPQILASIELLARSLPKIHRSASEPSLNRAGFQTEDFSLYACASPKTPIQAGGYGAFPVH
T3 sequence (P04049 whole entry): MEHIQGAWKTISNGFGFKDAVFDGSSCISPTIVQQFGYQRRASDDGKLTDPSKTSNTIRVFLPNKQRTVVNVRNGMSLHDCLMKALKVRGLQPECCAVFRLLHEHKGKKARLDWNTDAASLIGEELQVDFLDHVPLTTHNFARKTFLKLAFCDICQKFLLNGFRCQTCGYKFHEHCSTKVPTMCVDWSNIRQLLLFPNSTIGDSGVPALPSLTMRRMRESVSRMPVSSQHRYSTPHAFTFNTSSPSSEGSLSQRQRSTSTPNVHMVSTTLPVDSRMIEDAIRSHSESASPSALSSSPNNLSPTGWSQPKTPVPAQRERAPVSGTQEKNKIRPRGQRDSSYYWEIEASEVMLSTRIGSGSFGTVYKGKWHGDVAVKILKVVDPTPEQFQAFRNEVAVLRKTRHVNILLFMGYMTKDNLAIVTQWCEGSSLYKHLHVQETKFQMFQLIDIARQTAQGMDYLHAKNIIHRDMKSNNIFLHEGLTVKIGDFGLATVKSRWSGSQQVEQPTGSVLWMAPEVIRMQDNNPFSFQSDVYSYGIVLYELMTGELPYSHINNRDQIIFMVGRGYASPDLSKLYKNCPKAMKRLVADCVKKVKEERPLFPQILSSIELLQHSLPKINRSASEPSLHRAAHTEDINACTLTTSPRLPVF

Compound: CN(C)CCn1cnnc1-c1cc(Oc2ccc(NC(=O)N/N=C/c3cccc(Cl)c3Cl)cc2F)ccn1
IC50 (NCI-H460): 70 nM | IC50 (MKN-45): 50 nM

Compound: COc1ccc(C(=O)NCCNc2nccc(-c3c(-c4ccc(F)cc4)nc4sccn34)n2)cc1
IC50 (UO-31): 1420 nM | IC50 (MCF7): 2000 nM

Compound: CC(NC(=O)c1ccc(-c2ccc(NC(=O)Nc3ccc(C(F)(F)F)c(Cl)c3)cc2)cc1)c1ccccc1 (stereo unspecified)
IC50 (MX1): 4630 nM

Compound: CNC(=O)c1cc(Cn2ccc3cc(NC(=O)Nc4ccc(Cl)c(C(F)(F)F)c4)ccc32)ccn1
IC50 [1]: 510 nM

Compound: O=S(=O)(NCCNc1nccc(-c2c(-c3ccc(F)cc3)nc3sccn23)n1)c1ccc(O)cc1
IC50 [3]: 19 nM | IC50 [4]: 40 nM

Compound: O=C(NCCNc1nccc(-c2c(-c3ccc(F)cc3)nc3sccn23)n1)c1ccccc1
IC50 (UO-31): 1750 nM | IC50 (MCF7): 1430 nM

Compound: O=C(NCCNc1nccc(-c2c(-c3ccc(F)cc3)nc3sccn23)n1)Nc1ccccc1
IC50 (UO-31): 2940 nM | IC50 (MCF7): 3730 nM

Compound: Cc1ccc(C(=O)Nc2ccc(C(F)(F)F)c(Cl)c2)cc1NC(=O)C1(c2ccnc(NCCN3CCN(C)CC3)n2)CC1
IC50 [3]: 12.6 nM | IC50 [6]: 12.6 nM | IC50 [7]: 30.1 nM | IC50 [8]: 19.7 nM | IC50 [9]: 17.5 nM | IC50 (A-375 [10]): 1070 nM | IC50 (COLO 205): 1920 nM | IC50 (SK-MEL-2): < 400 nM

Compound: CC(NC(=O)c1cccc(-c2ccc(NC(=O)Nc3ccc(C(F)(F)F)c(Cl)c3)cc2)c1)c1ccccc1 (stereo unspecified)
IC50 (A-375 [2]): 5170 nM | IC50 (MX1): 5170 to 6460 nM | IC50 (HepG2): 5170 to 6460 nM | IC50 (KETR3): 5170 to 6460 nM | IC50 (HT-29): 5170 to 6460 nM

Compound: CNC(=O)c1cc(Oc2ccc(NC(=O)Nc3ccc(Cl)c(C(F)(F)F)c3)cc2)ccn1 [SORAFENIB]
IC50 (A-375 [2]): 8270 to 18800 nM | IC50 (MX1): 8270 to 18800 nM | IC50 (HepG2): 8270 to 18800 nM | IC50 (KETR3): 8270 to 18800 nM | IC50 (HT-29): 3610 to 18800 nM

Results, then the compound that gave them:

IC50 (A-375 [2]): 6 nM | IC50 [3]: 1000 nM | IC50 (HCT-116): 32 nM
Compound: CNc1cc2c(cn1)cc(-c1ccc(F)c(NC(=O)Nc3cc(C(C)(C)C)no3)c1)c(=O)n2C1CCOC1 (stereo unspecified)

IC50 [3]: 1.4 to 12.2 nM | IC50 [5]: 25.3 nM | IC50 [1]: 29.7 nM | IC50 [4]: 13.3 nM
Compound: Cc1ccc(C(=O)Nc2ccc(C(F)(F)F)c(Cl)c2)cc1NC(=O)C1(c2cc(NCCCN3CCN(C)CC3)ncn2)CC1

IC50 [1]: 1360 nM
Compound: CNC(=O)c1cc(Cn2cc(F)c3cc(NC(=O)Nc4ccc(Cl)c(C(F)(F)F)c4)ccc32)ccn1

IC50 [3]: 23 nM
Compound: O=S(=O)(c1ccc(F)cc1)N1CCCC(Nc2nccc(-c3c(-c4ccc(F)cc4)nc4sccn34)n2)C1 (stereo unspecified)

IC50 (A-375 [2]): 13 nM | IC50 [3]: 7 nM
Compound: COc1cc2c(cnc3[nH]nc(C4CC4)c32)cc1-c1c(F)ccc(NS(=O)(=O)CCCF)c1F
